Laboratory results: US12018267B2, “Plants having increased tolerance to herbicides” (BASF SE, priority 2015, dated 2024)

Assays:
[1] = test system: transgenic Arabidopsis plants with wildtype or mutated cellulose synthase sequences (SEQ ID NO: 1 or 3); assay: 48-well plate growth inhibition of transgenic T2 Arabidopsis, relative tolerance rates versus non-transgenic (Table E2-1); assay type: in vivo, Arabidopsis thaliana; conditions: growth inhibition evaluated seven to ten days after seeding
From the text: For transformation of Arabidopsis thaliana, wildtype or mutated cellulose synthase sequences encoding for one of the following protein sequences SEQ ID NO: 1 or 3, are cloned with standard cloning techniques as described in Sambrook et al. (Molecular cloning (2001) Cold Spring Harbor Laboratory Press) in a binary vector containing resistance marker gene cassette (AHAS) and mutated cellulose synthase sequence (marked as GOI) in between ubiquitin promoter (PcUbi) and nopaline synthase terminator (NOS) sequence. Binary plasmids are introduced to Agrobacterium tumefaciens for plant transformation. Arabidopsis thaliana are transformed with wildtype or mutated cellulose synthase sequences by floral dip method as described by McElver and Singh (WO 2008/124495). Transgenic Arabidopsis plants are subjected to TaqMan analysis for analysis of the number of integration loci.
Transgenic Arabidopsis thaliana plants (T2) are assayed for improved tolerance to azine herbicides like e. g. 6-cyclopentyl-N4-(2,3,4,5,6-pentafluorophenyl)-1,3,5-triazine-2,4-diamine in 48-well plates. Therefore, T2 seeds are surface sterilized by stirring for 5 min in ethanol+water (70+30 by volume), rinsing one time with ethanol+water (70+30 by volume) and two times with sterile, deionized water. The seeds are resuspended in 0.1% agar dissolved in water (w/v) Four to five seeds per well are plated on solid nutrient medium consisting of half-strength murashige skoog nutrient solution, pH 5.8 (Murashige and Skoog (1962) Physiologia Plantarum 15: 473-497). Compounds are dissolved in dimethylsulfoxid (DMSO) and added to the medium prior solidification (final DMSO concentration 0.1%). Multi well plates are incubated in a growth chamber at 22° C., 75% relative humidity and 110 μmol Phot*m^−2*s^−1 with 14:10 h light:dark photoperiod. Growth inhibition is evaluated seven to ten days after seeding in comparison to wild type plants. Tolerance factors are calculated based on IC50 values of growth inhibition of transformed versus non-transformed Arabidopsis plants.

[2] = test system: O. sativa Volano-M3-CESA1 and CESA3 mutants; assay: Greenhouse foliar application, crop injury on tilled Rice M3 generation cellulose synthase mutants (Table E10-1); assay type: in vivo, Oryza sativa; conditions: foliar application 250 g ai/ha
From the text: Oryza sativa M2 Volano is a cellulose biosynthesis inhibitor susceptible rice risotto population that was subjected to sodium azide seed mutagenesis but was not tilled nor selected for CESA mutations. O. sativa Volano-M3-CESA1 and CESA3 mutants were selected from a subpopulation of O. sativa M2 Volano by sequencing CESA gene sequences in M2 plants and maintaining (producing seed through selfing) those individuals containing key mutations in these genes. The tolerance of the M3 CESA1 and CESA3 mutants was assessed using 6-(1-fluorocyclopentyl)-N2-(2,3,5,6-tetrafluorophenyl)-1,3,5-triazine-2,4-diamine, together with 1.0% DASH® EC adjuvant (BASF). The tolerance of M4 CESA1 and CESA3 mutants was assessed using 6-cyclopentyl-N4-(2,3,4,5,6-pentafluorophenyl)-1,3,5-triazine-2,4-diamine, together with 1.0% DASH® EC adjuvant (BASF).
M3 seed, which were harvested from tilled and selected individuals containing mutations in the CESA1 and CESA3 genes, were grown in the greenhouse under natural light conditions supplemented with 400 W sodium halide lamps under a 16 hr day length. Day/night temperatures were 26 and 20° C., respectively. The number of M3 plants from each line varied between 2 and 16, depending on seed availability and germination. A non-selective CBI, azine 6-(1-fluorocyclopentyl)-N2-(2,3,5,6-tetrafluorophenyl)-1,3,5-triazine-2,4-diamine, formulated with 1.0% DASH in a water volume of 375 L/ha was applied early post-emergent (one to two leaf stage) at a rate of 250 g ai/ha to M3 CESA1 and CESA3 mutant rice plants growing in soil in the greenhouse. Only plants originating from lines having more than four seeds were subjected to herbicide treatment. CESA mutant lines with four or fewer seeds were selfed for an additional generation and then tested at the M4 generation with 6-cyclopentyl-N4-(2,3,4,5,6-pentafluorophenyl)-1,3,5-triazine-2,4-diamine. M4 plants were grown under similar conditions as M3 plants and treated with 250 g ai/ha or 500 g ai/ha of 6-cyclopentyl-N4-(2,3,4,5,6-pentafluorophenyl)-1,3,5-triazine-2,4-diamine. […] Plants without any symptoms were recorded as “0%” injury. Increasing levels of reduced leaf mass and reduced stalk stiffness, with respect to the untreated control plants, were recorded in the range of “1 to 49%” injury. Increasing levels of leaf abnormalities and leaf necrosis, along with increased levels of lodging, relative to the untreated control plants, were recorded in the range of “50 to 85%” injury. Dead or dying plants with necrosis of the apex and severe lodging were recorded between “86-100%”. Data on individual plants was assessed and recorded due to the low number of individuals per line and the fact that the CESA mutations in the M2 generation were heterozygous and therefore segregating at the M3 and M4 generations. […]

| SMILES | Relative tolerance rate of transgenic Arabidopsis plants as compared to non-transgenic (non-transgenic = 1.0) ([1]; Construct AtCesA1_G1031R, SEQ ID 1, variant G1031R) | Relative tolerance rate of transgenic Arabidopsis plants as compared to non-transgenic (non-transgenic = 1.0) ([1]; Construct AtCesA1_L1011A, SEQ ID 1, variant L1011A) | Relative tolerance rate of transgenic Arabidopsis plants as compared to non-transgenic (non-transgenic = 1.0) ([1]; Construct AtCesA1_R292H, SEQ ID 1, variant R292H) | Relative tolerance rate of transgenic Arabidopsis plants as compared to non-transgenic (non-transgenic = 1.0) ([1]; Construct AtCesA1_V297M, SEQ ID 1, variant V297M) | Relative tolerance rate of transgenic Arabidopsis plants as compared to non-transgenic (non-transgenic = 1.0) ([1]; Construct AtCesA1_wt, SEQ ID 1, no variant) | Relative tolerance rate of transgenic Arabidopsis plants as compared to non-transgenic (non-transgenic = 1.0) ([1]; Construct AtCesA3_F1039L, SEQ ID 3, variant F1039L) | Relative tolerance rate of transgenic Arabidopsis plants as compared to non-transgenic (non-transgenic = 1.0) ([1]; Construct AtCesA3_wt, SEQ ID 3, no variant) | Crop Injury Assessment (%) at 20 DAT ([2]; Rice M3 OsCESA1 A1066T (SEQ ID 51), parental plant Het) [%] | Crop Injury Assessment (%) at 20 DAT ([2]; Rice M3 OsCESA1 S827N (SEQ ID 51), parental plant Het) [%] | Crop Injury Assessment (%) at 20 DAT ([2]; Rice M3 OsCESA1 V9231 (SEQ ID 51), parental plant Het) [%] | Crop Injury Assessment (%) at 20 DAT ([2]; Rice M3 OsCESA3 V1022L (SEQ ID 55), parental plant Hom) [%] |
| --- | --- | --- | --- | --- | --- | --- | --- | --- | --- | --- | --- |
| Nc1nc(Nc2c(F)c(F)c(F)c(F)c2F)nc(C2CCCC2)n1 [6-cyclopentyl-N4-(2,3,4,5,6-pentafluorophenyl)-1,3,5-triazine-2,4-diamine] | 7 | 3 | 3 | 1 | 1 | 3 | 1 |  |  |  |  |
| Nc1nc(Nc2c(F)c(F)cc(F)c2F)nc(C2(F)CCCC2)n1 [6-(1-fluorocyclopentyl)-N2-(2,3,5,6-tetrafluorophenyl)-1,3,5-triazine-2,4-diamine] |  |  |  |  |  |  |  | 10 | 0 | 0 | 20 |
